One data set is described as follows: physchem. The settings on record: aqueous medium.
The next data set is described as follows: in vivo. To be noted: iv, 4.37 mg/kg.

Where only a bound is given, the exact number is not on record here.

As a reminder, the solubility is how much of the substance goes into solution per volume. What is called AUC(0-inf) is the area under the concentration-time curve extrapolated to infinity. Usually AUC(0-t) stands for the area under the concentration-time curve up to a stated or last time point. A high value points to more exposure. As usually defined, the Cmax is the peak of the concentration-time curve. In general, half-life refers to the time needed for the level to fall by half in the phase considered.

`COc1cc(C(=O)O)ccc1NC(=O)[C@@H]1N[C@@H](CC(C)(C)C)[C@](C#N)(c2ccc(Cl)cc2F)[C@H]1c1cccc(Cl)c1F` [Compound B, 4-((2R,3S,4R,5S)-3-(3-chloro-2-fluorophenyl)-4-(4-chloro-2-fluorophenyl)-4-cyano-5-neopentylpyrrolidine-2-carboxamido)-3-methoxybenzoic acid] yielded a solubility in the data set “physchem” of less than 1 µg/mL. In addition, in “in vivo”, the total exposure AUC(0-inf) stood at 21600 ng·h/mL, the AUC(0-t) was 20900 ng·h/mL, the concentration peaked (Cmax) at 4390 ng/mL and the half-life was 5.07 h.

The values above are taken from patent US8993614B2, “Substituted pyrrolidine-2-carboxamides” (Hoffmann-La Roche Inc., priority 2012, dated 2015).
